Data set [1] concerns the target T1, ATP-dependent translocase ABCB1 (Homo sapiens, UniProt P08183). Kind of data set: TP_TRANSPORTER: ATP hydrolysis in membranes from CEM/VLB100 cells. It counts as functional, cell membranes, Membrane.
Data set [2] addresses T1, ATP-dependent translocase ABCB1. Briefly: TP_TRANSPORTER: inhibition of ATPase activity (Verapamil) in membranes from CEM/VLB100 cells. It counts as functional, cell membranes, Membrane.

The results in this text go back to ChEMBL document CHEMBL2073918, “Effect of modulators on the ATPase activity and vanadate nucleotide trapping of human P-glycoprotein” (Biochem Pharmacol, 1998).

Broadly, the Ki is the equilibrium dissociation constant of an inhibitor or competing ligand from its target. A lower Ki goes with tighter binding.

T1 sequence (P08183 whole entry): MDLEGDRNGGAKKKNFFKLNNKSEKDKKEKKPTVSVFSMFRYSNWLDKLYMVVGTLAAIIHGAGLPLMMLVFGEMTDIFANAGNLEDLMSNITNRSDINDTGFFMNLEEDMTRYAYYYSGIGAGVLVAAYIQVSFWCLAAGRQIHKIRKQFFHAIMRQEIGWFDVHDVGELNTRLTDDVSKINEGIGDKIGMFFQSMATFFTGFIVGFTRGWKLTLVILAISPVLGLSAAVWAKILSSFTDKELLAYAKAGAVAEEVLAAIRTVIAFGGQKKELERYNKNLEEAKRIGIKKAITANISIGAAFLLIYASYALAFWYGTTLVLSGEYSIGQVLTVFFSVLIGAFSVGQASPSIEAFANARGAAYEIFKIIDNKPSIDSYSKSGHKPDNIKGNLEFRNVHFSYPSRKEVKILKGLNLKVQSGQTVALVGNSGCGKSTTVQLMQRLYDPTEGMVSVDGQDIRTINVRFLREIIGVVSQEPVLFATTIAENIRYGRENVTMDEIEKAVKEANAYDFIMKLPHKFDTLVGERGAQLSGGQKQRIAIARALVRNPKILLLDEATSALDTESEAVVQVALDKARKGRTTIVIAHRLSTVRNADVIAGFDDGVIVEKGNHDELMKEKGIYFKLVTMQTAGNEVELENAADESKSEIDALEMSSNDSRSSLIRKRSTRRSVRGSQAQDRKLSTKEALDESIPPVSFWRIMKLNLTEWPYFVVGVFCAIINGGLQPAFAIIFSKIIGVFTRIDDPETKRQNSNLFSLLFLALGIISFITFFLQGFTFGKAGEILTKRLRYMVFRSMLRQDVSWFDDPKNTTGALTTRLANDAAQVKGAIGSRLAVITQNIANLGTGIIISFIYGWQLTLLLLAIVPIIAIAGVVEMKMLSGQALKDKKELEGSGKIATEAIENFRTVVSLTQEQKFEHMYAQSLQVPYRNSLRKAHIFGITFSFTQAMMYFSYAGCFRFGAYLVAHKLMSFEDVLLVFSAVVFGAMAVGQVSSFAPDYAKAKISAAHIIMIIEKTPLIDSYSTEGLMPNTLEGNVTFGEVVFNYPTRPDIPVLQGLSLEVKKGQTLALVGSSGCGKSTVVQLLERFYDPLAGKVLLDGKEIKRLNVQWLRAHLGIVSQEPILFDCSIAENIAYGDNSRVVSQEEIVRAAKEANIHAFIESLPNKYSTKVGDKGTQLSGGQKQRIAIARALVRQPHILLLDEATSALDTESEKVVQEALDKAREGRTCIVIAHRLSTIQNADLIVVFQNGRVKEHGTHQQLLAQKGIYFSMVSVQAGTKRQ

As to `CCC12C=CCN3CC[C@@]4(c5ccc(OC)cc5N(C)[C@H]4[C@@](O)(C(=O)OC)[C@@H]1OC(C)=O)[C@@H]32` (some centres not stated) [VINDOLINE], in data set [1], the Activity entry was “is not a substrate [-]”. `COC(=O)[C@@H]1C2CC3c4[nH]c5ccccc5c4CCN3CC2CC[C@@H]1OC(=O)c1cc(OC)c(OC)c(OC)c1` (some centres not stated) [TRIMETHOXYBENZOYLYOHIMBINE] registered a Ki in data set [2] of 2100 nM.
